Key:
NKCC1 = biological target: T1, NKCC1 (Homo sapiens, UniProt P55011); experiment: Cl- influx assay in NKCC1-transfected HEK293 cells; assay type: cell-based; settings: for inhibition at 10 µM: HEK293, read-out: Inhibition 10 μM Cl- influx (%); for inhibition at 100 µM: HEK293, read-out: Inhibition 100 μM Cl- influx (%)
T1 construct: host or cells: HEK293
T1 sequence (P55011 1-1212): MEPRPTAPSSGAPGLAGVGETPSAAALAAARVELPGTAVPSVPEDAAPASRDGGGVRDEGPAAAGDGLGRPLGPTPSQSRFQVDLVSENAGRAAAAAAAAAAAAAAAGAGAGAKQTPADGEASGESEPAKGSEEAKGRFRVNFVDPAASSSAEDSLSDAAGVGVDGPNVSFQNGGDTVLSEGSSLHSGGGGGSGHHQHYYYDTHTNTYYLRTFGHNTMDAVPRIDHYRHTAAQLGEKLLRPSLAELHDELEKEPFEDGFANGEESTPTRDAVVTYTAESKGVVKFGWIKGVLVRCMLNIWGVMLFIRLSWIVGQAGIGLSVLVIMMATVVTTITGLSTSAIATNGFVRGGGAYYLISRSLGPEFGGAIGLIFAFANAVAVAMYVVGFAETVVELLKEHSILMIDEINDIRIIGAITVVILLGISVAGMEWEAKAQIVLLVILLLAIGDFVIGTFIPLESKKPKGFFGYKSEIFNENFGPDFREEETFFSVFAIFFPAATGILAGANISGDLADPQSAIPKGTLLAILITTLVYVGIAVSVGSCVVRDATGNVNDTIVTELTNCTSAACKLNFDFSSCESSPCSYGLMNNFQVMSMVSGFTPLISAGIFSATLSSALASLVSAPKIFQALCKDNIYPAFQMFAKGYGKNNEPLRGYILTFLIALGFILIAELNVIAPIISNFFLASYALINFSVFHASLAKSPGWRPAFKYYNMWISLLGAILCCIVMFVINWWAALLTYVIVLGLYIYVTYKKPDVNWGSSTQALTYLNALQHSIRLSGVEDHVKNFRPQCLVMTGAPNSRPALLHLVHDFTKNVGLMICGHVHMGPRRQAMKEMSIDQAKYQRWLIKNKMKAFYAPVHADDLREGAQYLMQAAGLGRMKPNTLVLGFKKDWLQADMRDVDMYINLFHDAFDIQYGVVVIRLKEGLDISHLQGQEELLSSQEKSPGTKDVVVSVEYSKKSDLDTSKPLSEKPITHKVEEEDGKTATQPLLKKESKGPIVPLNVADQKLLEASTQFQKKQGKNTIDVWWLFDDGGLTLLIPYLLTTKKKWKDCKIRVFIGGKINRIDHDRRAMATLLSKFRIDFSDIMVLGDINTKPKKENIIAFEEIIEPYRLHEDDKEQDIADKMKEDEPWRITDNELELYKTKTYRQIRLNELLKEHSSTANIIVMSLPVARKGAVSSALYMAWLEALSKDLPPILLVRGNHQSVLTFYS
Description: HEK293 cells were cultured in Dulbecco’s modified Eagle’s medium (DMEM) supplemented with 10% fetal bovine serum, 1% L-glutamine, 100 U/mL penicillin, and 100 μg/mL streptomycin and maintained at 37 °C in a 5% CO2 humidified atmosphere. To assess NKCC1 and NKCC2 activity (Cl^– influx assay), 3 million HEK cells were plated in a 10 cm cell-culture dish and transfected with a transfection mixture comprising 5 mL of DMEM, 4 mL of Opti-MEM, 8 μg of DNA plasmid coding for NKCC1 (PRK-NKCC1 obtained from Medical Research Council and the University of Dundee), NKCC2 (OriGene plasmid #RC216145) subcloned in PRK5 plasmid, or mock control (empty vector), together with 8 μg of a plasmid coding for the Cl^–-sensitive variant of the membrane-targeted fluorescent protein YFP, mbYFPQS (Addgene plasmid #80742),[53] and 32 μL of Lipofectamin 2000. To assess KCC2 activity (Tl influx assay), cells were transfected with 8 μg of KCC2[54] subcloned in the PRK5 plasmid or mock control (empty vector) and 16 μL of Lipofectamin 2000. After 4 h, the cells were collected and plated in 96-well black-walled, clear-bottomed plates at a density of 2.5 × 10^4. After 48 h, cells were used for the Cl^– or Tl influx assays. All reagents were purchased from Life Technologies, unless otherwise specified.
Transfected cells were treated with 10 μM or 100 μM bumetanide (as positive controls), DMSO (as the negative control), or with each of our compounds in 100 μL/well of a Cl^–-free hypotonic solution (67.5 mM Na^+ gluconate, 2.5 mM K^+ gluconate, 15 mM HEPES pH 7.4, 50 mM glucose, 1 mM Na2HPO4, 1 mM NaH2PO4, 1 mM MgSO4, and 1 mM CaSO4). After 30 min of incubation, plates were loaded into a Victor 3V (PerkinElmer) multiplate reader equipped with an automatic liquid injector system, and fluorescence of Cl^–-sensitive mbYFPQS was recorded with excitation at 485 nm and emission at 535 nm. For each well, fluorescence was first recorded for 20 s of the baseline and for 60 s after delivery of a NaCl concentrated solution (74 mM final concentration in the assay well). Fluorescence of Cl^–-sensitive mbYFPQS is inversely correlated to the intracellular Cl^– concentration;[53] therefore, chloride influx into the cells determined a decrease in mbYFPQS fluorescence. To represent the fluorescent traces in time, we normalized the fluorescence value for each time point to the average of the fluorescence value of the first 20 s of the baseline (ΔF/F0). To quantify the average effects as represented by the bar plots, we expressed the decrease in fluorescence upon NaCl application as the average of the last 10 s of ΔF/F0 normalized traces. Moreover, for each experiment, to account for the contribution of Cl^– changes that were dependent on transporters/exchangers other than NKCC1 or NKCC2, we subtracted the value of the last 10 s of ΔF/F0 normalized traces obtained from mock-transfected cells (either control or treated) from the respective ΔF/F0 value obtained from the cells transfected with NKCC1 or NKCC2. We then presented in the figures all the data as a percentage of the fluorescence decrease versus the value of the control DMSO.

WT and Ts65Dn mice = experiment: Diuresis analysis in metabolic cages; settings: 0.6 mg kg-1 ip; adult WT and Ts65Dn mice; vs vehicle-treated mice
Description: A veterinarian was employed to maintain the health and comfort of the animals. Mice were housed in filtered cages in a temperature-controlled room with a 12:12 h dark/light cycle and with ad libitum access to water and food. All efforts were made to minimize animal suffering and use the lowest possible number of animals required to produce statistical relevant results, according to the “3Rs concept”. In this study, we used Ts65Dn mice maintained in their original genetic background[57] by crossing (more than 40 times) Ts65Dn female to C57BL/6JEi × C3SnHeSnJ (B6EiC3) F1 males (Jackson Laboratories). Ts65Dn mice were genotyped by PCR as previously described.[58] Only males were used for behavioral experiments. Ts65Dn and controls were randomly assigned to vehicle groups (2% DMSO in saline), bumetanide (Sigma, 0.6 mg kg^–1 body weight), or 40 (0.6 mg kg^–1 body weight) and treated daily for ∼21 days by intraperitoneal injection (i.p.). On the day of behavioral testing, injection was performed 1 h before the task began.

Structure (SMILES): CN(C)S(=O)(=O)c1cc(C(=O)O)ccc1NCCCCCCCC(F)(F)F [Compound 1, 3-(-N,N-Dimethylsulfamoyl)-4-(8,8,8-trifluorooctylamino)benzoic Acid]
- inhibition at 10 µM (NKCC1): 37.1 ± 5%
- inhibition at 100 µM (NKCC1): 88.5 ± 1.7%

Structure (SMILES): CN(C)S(=O)(=O)c1cc(C(=O)O)c(O)cc1NCCCCCCCC(F)(F)F [Compound 40, 5-(N,N-Dimethylsulfamoyl)-2-hydroxy-4-((8,8,8-trifluorooctyl)amino)benzoic Acid]
- diuretic effect (urine volume collected for 2 h) (WT and Ts65Dn mice): did not induce any significant diuresis

Structure (SMILES): CCCCNc1cc(C(=O)O)cc(S(N)(=O)=O)c1Oc1ccccc1 [bumetanide, reference compound]
- inhibition at 10 µM (NKCC1): 58.8 ± 5.6%
- inhibition at 100 µM (NKCC1): 71.7 ± 7%
- diuretic effect (urine volume collected for 2 h) (WT and Ts65Dn mice): significantly increased the urine volume

Source: publication PMC8311653, “Design, Synthesis, In Vitro and In Vivo Characterization of Selective NKCC1 Inhibitors for the Treatment of Core Symptoms in Down Syndrome” (Journal of Medicinal Chemistry, 2021)
